Measurements published in paper PMC3579662 (Journal of the American Chemical Society, 2013).

How the values were obtained:
[1] = biological target: T1, alanine racemase (AR); light protiated form HAR (Geobacillus stearothermophilus, UniProt P10724); test: steady-state racemization kinetics, competitive inhibition; assay type: biochemical
[2] = biological target: T1, alanine racemase (AR); light protiated form HAR; test: Michaelis-Menten saturation curves; assay type: biochemical; details: pH 8.9, 25 °C; light (protiated) enzyme

T1 sequence (P10724 whole entry): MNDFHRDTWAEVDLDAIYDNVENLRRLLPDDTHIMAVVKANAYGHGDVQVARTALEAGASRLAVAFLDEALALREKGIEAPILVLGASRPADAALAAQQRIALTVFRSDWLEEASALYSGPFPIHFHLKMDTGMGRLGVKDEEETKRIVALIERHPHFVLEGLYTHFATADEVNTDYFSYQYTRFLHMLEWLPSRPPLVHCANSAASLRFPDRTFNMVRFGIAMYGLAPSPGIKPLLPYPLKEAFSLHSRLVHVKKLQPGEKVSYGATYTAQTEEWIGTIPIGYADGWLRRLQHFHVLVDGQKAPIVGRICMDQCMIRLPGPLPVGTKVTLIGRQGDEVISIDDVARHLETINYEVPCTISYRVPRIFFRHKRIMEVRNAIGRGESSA

Compound `CC(C)(N)C(=O)O` [2-methylalanine] has a Ki [1] of 24 ± 1 mM.

With `C[C@@H](N)C(=O)O` [D-alanine] the KM [2] was “Michaelis-Menten saturation curves for ^HAR and ^DAR with protiated L- and D-alanine”.

For `C[C@H](N)C(=O)O` [L-alanine], the KM [2] was “Michaelis-Menten saturation curves for ^HAR and ^DAR with protiated L- and D-alanine”.
